According to patent US20170081383A1, “MELANOCORTIN ANALOGS HAVING ENHANCED ACTIVITY AND TRANSPORT” (Tensive Controls Inc., priority 2012, published 2017):
“Also recorded” adds a separate entry of the source. Positions of bridges follow the written chain, without caps; N, C: chain ends. Non-standard residues stand in square brackets, D forms with d. Residues, ends and D or L forms follow the SMILES beside them. No end group written: not given here. d2Nal = N[C@H](Cc1ccc2ccccc2c1)C(=O)O; Nle = CCCC[C@H](N)C(=O)O

Assays:
[1] = Sutton et al., Peptides 2008; cited from earlier work
[2] = tested on: urethane-anesthetized rats; assay: Cardiovascular activity of melanocortin peptides (MAP, heart rate, ECG); details: 200 nmol, n = 5
Description: These studies were performed in urethane-anesthetized rats, since anesthesia is required for six-lead ECG monitoring. […] Initial selection of doses was guided by FDA exploratory IND studies with a recommendation for at least a 100-fold excess of the human dose.

cachexia models = details: Marks et al., Cancer Res. 2001; cited from earlier work
Lewis sarcoma rat = assay: Reversal of cachexia-induced lethargy; format: in vivo; details: once-daily peripheral dosing for 48 hours (2 IP doses), irrespective of tumor load
Excerpt: In animals and humans, cachexia produces “lethargy,” i.e., the aversion to activity. Grossberg et al., J. Neurosci. 31(31): 11376-11386. […] This therapeutic effect is dependent on a stabilized melanocortin antagonist C-terminal extension. Video recordings characterized control animal behavior as neo-exploratory movement about the cage, i.e., repeated “sniffing” the air to presumably sample odors (e.g., neighboring animals), grooming, and intermittent bouts of eating and drinking. Caldecott-Hazard et al., J. Neurosci. 8(6): 1951-1961 (1988).
The animal typically remains in one position for an extended period of time (>1 minute). Occasionally it will change position, assuming the new position for an extended period. The rats show no grooming behavior, evident in the appearance of their coat and eyes.

[3] = tested on: LPS-induced cachexia in rats; assay: Lipopolysaccharide (LPS)-induced cachexia assay; format: in vivo, rat
Description: The LPS model uses rats were maintained on a 12 h light/dark schedule with ad libitum access to food and water. Animals were handled daily for a minimum of three consecutive days to decrease non-specific handling stress. On the day of the experiment, individually housed animals received intraperitoneal injections of LPS dissolved in 0.5% low-endotoxin BSA, 0.9% saline or 0.5% BSA in 0.9% saline alone, and were returned to their home cage. The drug or control was administered (ICV, IP, or PO, depending on the type of study) 1-hour after LPS injection.
In the experiments described herein, a series of melanocortin receptor antagonist peptides were examined in a bacterial endotoxin inducing cachexia assay. For this assay, a rat is challenged with a single peripheral injection of lipopolysaccharide (LPS). LPS is a heat-stable lipo-polysaccharide, the major component of the outer membrane (capsule) of gram negative bacteria. In non-capsulated strains, it appears as a cell surface […]. LPS produces a strong immune response, including secretion of the proinflammatory cytokines Tumor Necrosis Factor α (TNFα) and interleukin-1 (IL-1). Proinflammatory cytokines are known factors that induce cachexia.
Rats are maintained on a 12-hour light/dark cycle. Animals are handled daily for a minimum of 5 consecutive days to acclimate them to the handling required for the experiment. […] On the day of the experiment, individually housed animals receive intraperitoneal (IP) injections of LPS dissolved in 0.5% low-endotoxin BSA, 0.9% saline or 0.5% BSA in 0.9% saline alone, and returned in their home cage. Melanocortin receptor antagonist peptides were administered (IP or by gavage, depending on the type of study) one hour after the LPS injection. The extent of cachexia is measured by the reduction in food intake, measured every two hours. The cachexia typically lasts only a single day. However, rats lose up to 5% of their body weight during a 12-hour light cycle, making up this loss plus food needed for normal growth during the 12-hour dark cycle. Thus, failure to eat appropriately during a single dark cycle is determinable from the animal's weight and any changes thereof.
A series of melanocortin receptor antagonist peptides were examined in a bacterial toxin inducing cachexia assay. In this assay, a rat was challenged with a single peripheral injection of lipopolysaccharide (LPS), a bacterial toxin that rapidly induces acute cachexia. The extent of cachexia was measured as a reduction in food intake, measured every two hours. The cachexia typically lasts only a single day.

Compound: Ac-Nle-c[Asp-Pro-D-Nal(2′)-Arg-Trp-Lys]-Pro-Val-NH2 (Ac-[Nle]DP[d2Nal]RWKPV-NH2; lactam 2-7) [PG932]
- peripheral activity [1]: active peripherally
- Duration [2]: 4 ± 3 min
- Peak Heart Rate Response (BPM) [2]: 13 ± 9 BPM
- Peak MAP Response (Δ mm Hg) [2]: 5 ± 3 mm Hg

Compound: AGRP: endogenous melanocortin system inhibitor (agouti-related protein); naturally occurring melanocortin antagonist protein (SSRRCVRLHESCLGQQVPCCDPCATCYCRFFNAFCYCRKLGTAMNPCSRT; ends and bridges not checked; cysteine pairing not given here; UniProt O00253 83-132, looked up)
- reversal of cachexia-anorexia syndrome (cachexia models): 100%

Compound: CCCC[C@H](NC(C)=O)C(=O)N[C@H]1CC(=O)NCCCC[C@@H](C(=O)N[C@@H](C(=O)N2CCC[C@@H]2C(N)=O)C(C)C)NC(=O)[C@H](Cc2c[nH]c3ccccc23)NC(=O)[C@H](CCCNC(=N)N)NC(=O)[C@@H](Cc2ccc3ccccc3c2)NC(=O)[C@@H]2CCCN2C1=O [TCMCB07, Ac-Nle-c[Asp-Pro-D-Nal(2′)-Arg-Trp-Lys]-D-Val-D-Pro-NH2] (Ac-[Nle]DP[d2Nal]RWK[dV][dP]-NH2; lactam 2-7)
- behavior of cachectic (lethargic) rats (Lewis sarcoma rat): restored “normal” behavior to rats
- food intake, 24 hours after LPS challenge ([3]; 0.2 mg/kg intraperitoneally, FIG. 8A): stimulated appetites
- body weight (percent of pre-LPS baseline), 24 hours after LPS challenge ([3]; 0.2 mg/kg intraperitoneally, FIG. 8B): significantly gained weight
- peripheral (IP) LPS anti-cachectic activity relative to TCMCB02 ([3]; IP): 10 fold
- oral activity / gastrointestinal transport (in words) ([3]; gavage (intra-gastric) administration, LPS cachexia): significant enhancement of food intake
- anti-cachectic activity after ICV (IVt) administration (in words) ([3]; intracerebroventricular administration, LPS model): maintained ICV activity
- peripheral (IP) anti-cachexia activity, feeding (in words) ([3]; peripheral / intraperitoneal administration after LPS): equivalent stimulation of feeding; also recorded: significant increase in feeding
- activity following peripheral administration relative to TCMCB02 ([3]; peripheral administration): about 10 times
